Test results reported in ChEMBL document CHEMBL1129981 (J Med Chem, 1997).

Legend:
[1] = molecular target: Sodium-dependent serotonin transporter (Rattus norvegicus, UniProt P31652); assay: Inhibition of uptake of [3H]5-HT in synaptosomes from rat cortex; assay type: functional, subcellular, Brain
[2] = molecular target: T1, Adrenergic receptor alpha-2 (Rattus norvegicus, UniProt P22086+P19328+P22909); assay: Ability to displace [3H]rauwolscine from Alpha-2 adrenergic receptor in rat cortical membranes; assay type: cell membranes
T1 sequence (P22086 whole entry): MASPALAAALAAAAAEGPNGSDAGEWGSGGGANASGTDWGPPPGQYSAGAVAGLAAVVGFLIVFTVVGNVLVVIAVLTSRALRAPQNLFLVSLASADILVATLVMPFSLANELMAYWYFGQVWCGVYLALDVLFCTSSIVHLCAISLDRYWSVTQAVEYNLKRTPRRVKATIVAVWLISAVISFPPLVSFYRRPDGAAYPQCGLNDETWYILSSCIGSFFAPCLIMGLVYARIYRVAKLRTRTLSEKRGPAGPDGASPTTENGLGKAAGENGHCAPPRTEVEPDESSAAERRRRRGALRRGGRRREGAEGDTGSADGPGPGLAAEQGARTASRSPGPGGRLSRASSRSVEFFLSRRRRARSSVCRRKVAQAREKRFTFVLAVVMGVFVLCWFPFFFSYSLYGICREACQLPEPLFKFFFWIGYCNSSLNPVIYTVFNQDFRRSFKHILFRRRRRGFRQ
T1 sequence (P19328 whole entry): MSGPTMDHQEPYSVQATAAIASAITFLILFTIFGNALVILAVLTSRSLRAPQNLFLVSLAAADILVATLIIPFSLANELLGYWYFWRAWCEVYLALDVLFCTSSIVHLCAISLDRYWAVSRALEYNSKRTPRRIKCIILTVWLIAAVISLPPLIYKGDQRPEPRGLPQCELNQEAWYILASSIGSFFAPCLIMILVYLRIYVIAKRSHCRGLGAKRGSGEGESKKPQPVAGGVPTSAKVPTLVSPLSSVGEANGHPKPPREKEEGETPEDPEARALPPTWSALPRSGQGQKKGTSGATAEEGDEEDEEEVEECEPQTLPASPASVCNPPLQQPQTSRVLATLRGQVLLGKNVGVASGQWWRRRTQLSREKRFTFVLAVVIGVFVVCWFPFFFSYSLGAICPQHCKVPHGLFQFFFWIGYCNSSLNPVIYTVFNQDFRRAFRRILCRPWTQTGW
T1 sequence (P22909 whole entry): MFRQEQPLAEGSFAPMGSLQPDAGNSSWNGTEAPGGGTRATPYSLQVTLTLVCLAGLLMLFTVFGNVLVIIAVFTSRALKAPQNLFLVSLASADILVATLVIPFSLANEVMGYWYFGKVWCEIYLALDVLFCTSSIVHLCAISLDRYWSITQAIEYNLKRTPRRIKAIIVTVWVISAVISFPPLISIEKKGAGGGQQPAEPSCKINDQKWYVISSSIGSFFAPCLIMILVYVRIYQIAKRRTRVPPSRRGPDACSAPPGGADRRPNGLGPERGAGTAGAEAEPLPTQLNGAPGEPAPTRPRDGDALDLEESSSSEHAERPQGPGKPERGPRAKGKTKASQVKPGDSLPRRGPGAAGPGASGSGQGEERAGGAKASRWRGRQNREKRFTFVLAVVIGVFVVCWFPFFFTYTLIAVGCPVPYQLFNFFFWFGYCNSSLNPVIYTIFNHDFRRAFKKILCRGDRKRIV

Sequence of Sodium-dependent serotonin transporter (P31652 whole entry): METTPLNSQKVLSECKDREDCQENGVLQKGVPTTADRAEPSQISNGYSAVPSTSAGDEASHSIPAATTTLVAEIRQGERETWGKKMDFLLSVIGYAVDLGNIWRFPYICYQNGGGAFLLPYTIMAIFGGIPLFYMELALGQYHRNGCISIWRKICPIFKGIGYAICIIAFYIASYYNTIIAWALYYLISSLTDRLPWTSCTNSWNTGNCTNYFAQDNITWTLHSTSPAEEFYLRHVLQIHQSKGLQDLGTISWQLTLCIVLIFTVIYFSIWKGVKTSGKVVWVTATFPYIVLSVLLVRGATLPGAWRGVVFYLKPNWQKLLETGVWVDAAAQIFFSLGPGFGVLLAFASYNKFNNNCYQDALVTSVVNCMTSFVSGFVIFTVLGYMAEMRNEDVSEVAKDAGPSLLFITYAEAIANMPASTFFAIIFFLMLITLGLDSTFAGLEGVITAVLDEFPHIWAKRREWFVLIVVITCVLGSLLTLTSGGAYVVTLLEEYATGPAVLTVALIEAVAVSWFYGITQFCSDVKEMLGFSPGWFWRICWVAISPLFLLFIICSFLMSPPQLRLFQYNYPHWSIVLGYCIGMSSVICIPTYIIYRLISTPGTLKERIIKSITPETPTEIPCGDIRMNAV

SMILES | IC50 [1] [nM] | Ki [2] [nM]
COc1ccc2c(c1)C(CN(C)CCc1ccc3c(c1)OCO3)CCC2 (stereo not drawn) | 1420 | 57.5
CN(CCc1ccc2c(c1)OCO2)C[C@@H]1CCCc2c1ccc1c2OCC1 | 26.7 | 5.57
COc1cccc2c1CCC[C@H]2CN(C)CCc1ccc2c(c1)CCS2(=O)=O | 33.7 | 4.67
COc1cccc2c1C(CN(C)CCc1ccc3c(c1)OCO3)CCC2 (stereo not drawn) | 1430 | 2.88
CN(CCc1ccc2c(c1)OCO2)C[C@@H]1CCCc2c1ccc1ccoc21 | 101 | 4.88
COc1cccc2c1CCC[C@H]2CN(C)CCc1ccc2occc2c1 | 17.6 | 2.78
COc1cccc2c1CCC[C@H]2CN(C)CCc1ccc2nc(O)oc2c1 | 19.4 | 4.51
COc1cccc2c1CCC[C@H]2CN(C)CCc1ccc2c(c1)C=CS2(=O)=O | 51 | 4.82
COc1cccc2c1CCC[C@H]2CN(C)CCc1ccc2c(c1)CCN2S(C)(=O)=O | 35 | 4.62
CCN(CCc1ccc2c(c1)OCO2)C[C@@H]1CCCc2c(OC)cccc21 | 158 | 5.73
CN(CCc1ccc2c(c1)OCO2)CC1CCCc2c(NS(C)(=O)=O)cccc21 (stereo not drawn) | 658 | 19
COc1cccc2c1CCC[C@H]2CN(C)CCc1ccc2nc(C)sc2c1 | 86.7 | 2.12
CN(CCc1ccc2c(c1)OCO2)C[C@@H]1CC[C@H]2CCOc3cccc1c32 | 436 | 94.1
COc1cccc2c1CCC[C@H]2CN(C)CCc1ccc2c(c1)CCS2 | 24.3 | 2.65
COc1cccc2c1CCC[C@H]2CN(C)CCc1ccc2nc(C)oc2c1 | 42.8 | 9.27
COc1cccc2c1CCC[C@H]2CN(C)CCc1ccc2c(c1)CCC2 | 20.5 | 8.99
COc1cccc2c1CCC[C@H]2CN(C)CCc1ccc2c(c1)CN(S(C)(=O)=O)C2 | 5.81 | 5.33
COc1cccc2c1CCC[C@H]2CN(C)CCc1ccc2ncccc2c1 | 46.7 | 3.91
COc1cccc2c1CCC[C@H]2CN(C)CCc1ccc2ncoc2c1 | 5.25 | 1.22
CN(CCc1ccc2c(c1)OCO2)CC1CCCc2ccccc21 (stereo not drawn) | 1090 | 8.19

SMILES | IC50 [1] [nM] | Ki [2] [nM]
COc1cccc2c1CCC[C@H]2CN(C)CCc1ccc2ccncc2c1 | 53.9 | 6.07
COc1ccc2c(c1)CCCC2CN(C)CCc1ccc2c(c1)OCO2 (stereo not drawn) | 469 | 23.5
COc1cccc2c1CCC[C@H]2CN(C)CCc1ccc2c(c1)COC2 | 229 | 2.64
COc1cccc2c1CCC[C@@H]2CN(C)CCc1ccc2c(c1)OCO2 | 1310 | 88.6
COc1cccc2c1CCC[C@H]2CN(CCc1ccc2c(c1)OCO2)CC1CC1 |  | 54.3
COc1cccc2c1CCC[C@H]2CN(C)CCc1ccc2c(c1)N(S(C)(=O)=O)CC2 | 38.9 | 5.35
COc1cccc2c1CCC[C@H]2CN(C)CCc1ccc2oc(O)nc2c1 | 68.3 | 7.5
COc1cccc2c1CCC[C@H]2CN(C)CCc1ccc2nc(N)sc2c1 | 9.47 | 5.67
COc1cccc2c1CCC[C@H]2CN(C)CCc1ccc2c(c1)NCC2 | 79.1 | 11.7
COc1cccc2c1CCC[C@H]2CN(C)CCc1ccc2c(c1)OCC2 | 18.1 | 1.88
COc1cccc2c1CCC[C@H]2CN(CCc1ccc2c(c1)OCO2)C1CC1 |  | 266
COc1cccc2c1CCC[C@H]2CN(C)CCc1ccc2ncsc2c1 | 8.94 | 2.73
COc1cccc2c1CCC[C@H]2CN(C)CCc1ccc2c(c1)CCN2 | 31.8 | 3.42
CN(CCc1ccc2c(c1)OCO2)CC1CCCc2c1ccc1c2OCO1 (stereo not drawn) | 60.3 | 11
COc1ccc2c(c1OC)CCC[C@H]2CN(C)CCc1ccc2c(c1)OCO2 | 757 | 15.5
COc1cccc2c1CCC[C@H]2CN(C)CCc1ccc2sccc2c1 | 52.8 | 17.9
COc1cccc2c1CCC[C@H]2CN(C)CCc1ccc2c(c1)CN(S(=O)(=O)C(F)(F)F)C2 | 59.8 | 142
COc1cccc2c1CCC[C@H]2CN(C)CCc1ccc2nc(Cl)sc2c1 | 38.2 | 5.45
COc1cccc2c1CCC[C@H]2CN(C)CCc1ccc2c(c1)CNC2 | 11.6 | 5.99
CN(CCc1ccc2c(c1)OCO2)C[C@@H]1CC[C@@H]2CCOc3cccc1c32 | 862 | 113

SMILES | IC50 [1] [nM] | Ki [2] [nM]
COc1cccc2c1CCC[C@H]2CN(C)CCc1ccc2c(c1)CCN2S(=O)(=O)C(F)(F)F | 132 | 158
COc1cccc2c1CCC[C@H]2CN(C)CCc1ccc2c(c1)OCO2 | 12.7 | 1.7
C#CCN(CCc1ccc2c(c1)OCO2)C[C@@H]1CCCc2c(OC)cccc21 |  | 184
COc1cccc2c1CCCC2CN(C)CCc1ccc2c(c1)OCO2 (stereo not drawn) | 20.6 | 6.71
CN(CCc1ccc2c(c1)OCO2)CC1CCCc2c(O)cccc21 (stereo not drawn) | 1240 | 7.54
CSc1cccc2c1CCCC2CN(C)CCc1ccc2c(c1)OCO2 (stereo not drawn) | 117 | 21
COc1cccc2c1CCC[C@H]2CN(C)CCc1ccc2c(c1)CC(=O)N2 | 22.2 | 4.91
COc1cccc2c1CCC[C@H]2CN(C)CCc1ccc2[nH]c(O)nc2c1 | 16.3 | 10.8
CCOc1cccc2c1CCC[C@H]2CN(C)CCc1ccc2c(c1)OCO2 | 198 | 1.86
COc1cccc2c1CCC[C@H]2CN(C)CCc1ccc2[nH]cnc2c1 | 11.3 | 5.21
COc1cccc2c1CCC[C@H]2CN(C)CCc1ccc2c(c1)CCO2 | 14.6 | 1.76
COc1cccc2c1CCC[C@H]2CN(C)CCc1ccc2nccnc2c1 | 44.4 | 1.81
COc1cccc2c1CCC[C@H]2CN(C)CCc1ccc2ocnc2c1 | 16.7 | 1.77
COc1cccc2c1CCC[C@H]2CN(C)CCc1ccc2cccnc2c1 | 18.1 | 6.79
COc1cccc2c1CCC[C@H]2CNCCc1ccc2c(c1)OCO2 | 414 | 88.2
COc1cccc2c1CCC[C@H]2CN(C)CCc1ccc2c(c1)CS(=O)(=O)C2 | 6.67 | 1.78
COc1cccc2c1CCC[C@H]2CN(C)CCc1ccc2c(c1)N(S(=O)(=O)C(F)(F)F)CC2 | 183 | 125
C1=C(CC2=NCCN2)CCc2ccccc21 [NAPAMEZOLE] | 887 | 4.17
